Earlier results on five molecules are cited in patent US20050101563A1, “Method and compositions for the treatment and prevention of pain and inflammation” (Pharmacia Corporation, priority 2001, published 2005).

For one data set, the system named is Cox-2. As to conditions: enzyme inhibitory compounds of Ligustrum lucidum extracts.
The subject of another data set is rats. The settings on record: orally administered; sponge implants in rats.
The conditions of data set [1]: orally administered; rats.
In data set [2] the test system is patients with knee osteoarthritis. As to conditions: 1500 mg/day, 3 years.

For the molecule `CC1(C)CC[C@]2(C(=O)O)CC[C@]3(C)C(=CC[C@@H]4[C@@]5(C)CC[C@H](O)C(C)(C)[C@@H]5CC[C@]43C)[C@@H]2C1` [oleanic acid], in the data set on Cox-2, the “selectivity for the inhibition of Cox-2 versus Cox-1” value is “not substantially more selective for the inhibition of Cox-2 than for Cox-1”.
For `C[C@H]1[C@H](C)CC[C@]2(C(=O)O)CC[C@]3(C)C(=CC[C@@H]4[C@@]5(C)CC[C@H](O)C(C)(C)[C@@H]5CC[C@]43C)[C@H]12` [ursolic acid], in the data set on Cox-2, the “selectivity for the inhibition of Cox-2 versus Cox-1” value was “not substantially more selective for the inhibition of Cox-2 than for Cox-1”.
Consider chondroitin sulfate, for which, in the data set with rats, the granuloma formation result is on record as “significantly decrease granuloma formation”. Besides, the tissue tropism result in data set [1] is recorded as “tropism for cartilagineous tissues”.
As to `N[C@H]1C(O)O[C@H](CO)[C@@H](O)[C@@H]1O.O=S(=O)(O)O` (stereo partly drawn) [glucosamine sulfate], the joint-space loss result in data set [2] is listed as “no significant joint-space loss”.
Consider `CC(=O)N[C@H]1C(O)O[C@H](CO)[C@@H](O)[C@@H]1O` (stereo partly drawn) [N-acetylglucosamine], for which, in the data set with human chondrocytes, the “IL-1-beta-mediated activation of chondrocytes” value is “prevent IL-1-beta-mediated activation of human chondrocytes”.
